# According to ChEMBL document CHEMBL3882738, “Dimethylarginine Dimethylaminohydrolase inhibitors and methods of use thereof” (2014):
# Active and inactive are the calls of the source. The calls are words filed in the database; no cut-off is given here.
# Key:
# [1] = molecular target: T1, N(G),N(G)-dimethylarginine dimethylaminohydrolase 1 (Homo sapiens, UniProt O94760); test: Inhibition of recombinant human DDAH1 expressed in Escherichia coli BL21 Star (DE3) using SMTC as substrate assessed as decrease in L-citrulline and methanethiol production by CPM-based fluorimetric assay
# [2] = molecular target: Transforming growth factor beta (Homo sapiens) (UniProt P01137+P61812+P10600); test: Inhibition of TGF-beta-induced acid-soluble collagen levels in lung fibroblasts isolated from late stage idiopathic pulmonary fibrosis patient at 20 uM after 24 hrs by sircol collagen assay; type: protein assay
# [3] = molecular target: T1, N(G),N(G)-dimethylarginine dimethylaminohydrolase 1; test: Inhibition of DDAH in human A549 cells assessed as downregulation of iNOS expression at 50 to 100 uM after 24 hrs by Western blot method; type: cell-based
# [4] = molecular target: T1, N(G),N(G)-dimethylarginine dimethylaminohydrolase 1; test: Inhibition of DDAH in human A549 cells assessed as reduction in intracellular nitric oxide levels at 10 to 100 uM after 24 hrs by Griess assay; type: cell-based
# [5] = molecular target: T1, N(G),N(G)-dimethylarginine dimethylaminohydrolase 1; test: Inhibition of recombinant human DDAH1 expressed in Escherichia coli BL21 Star (DE3) using ADMA as substrate assessed as decrease in citrulline production at 50 uM after 4 hrs by colorimetric method
# [6] = molecular target: T1, N(G),N(G)-dimethylarginine dimethylaminohydrolase 1; test: Inhibition of DDAH in lung fibroblasts isolated from late stage idiopathic pulmonary fibrosis patient assessed as reduction of TGF-beta-induced acid-soluble collagen levels at 50 uM after 24 hrs by sircol collagen assay
# [7] = molecular target: T1, N(G),N(G)-dimethylarginine dimethylaminohydrolase 1; test: Inhibition of DDAH in human A549 cells assessed as increase in intracellular ADMA levels at 10 to 100 uM after 24 hrs by ELISA relative to vehicle-treated control; type: cell-based
# [8] = molecular target: T1, N(G),N(G)-dimethylarginine dimethylaminohydrolase 1; test: Inhibition of DDAH in human A549 cells assessed as reduction of A23187-induced apoptosis by measuring […] in mono and oligo nucleosome content at 20 to 100 uM after 24 hrs; type: cell-based
# [9] = molecular target: T1, N(G),N(G)-dimethylarginine dimethylaminohydrolase 1; test: Reversible inhibition of recombinant human DDAH1 expressed in Escherichia coli BL21 Star (DE3) using SMTC as substrate assessed as decrease in L-citrulline and methanethiol production at 1 to 100 times IC50 preincubated for 1 hr followed by 100 fold dilution by CPM-based fluorimetric assay
# [10] = molecular target: T1, N(G),N(G)-dimethylarginine dimethylaminohydrolase 1; test: Inhibition of recombinant human DDAH1 expressed in Escherichia coli BL21 Star (DE3) using ADMA as substrate assessed as decrease in citrulline production after 4 hrs by colorimetric method
# [11] = Cytotoxicity against human A549 cells up to 300 uM by lactate dehydrogenase release assay; type: cell-based
# [12] = Cytotoxicity against mouse MLE12 cells up to 300 uM by lactate dehydrogenase release assay; type: cell-based
# [13] = molecular target: T1, N(G),N(G)-dimethylarginine dimethylaminohydrolase 1; test: Inhibition of DDAH in human A549 cells assessed as decrease in serum-stimulated cell proliferation at 3 to 100 uM preincubated for 2 hrs followed by fetal bovine serum addition measured 24 hrs post compound treatment by BrdU incorporation assay; type: cell-based
# [14] = molecular target: N(G),N(G)-dimethylarginine dimethylaminohydrolase 1 (Mus musculus) (UniProt Q9CWS0); test: Inhibition of DDAH in mouse MLE12 cells assessed as decrease in serum-stimulated cell proliferation at 3 to 100 uM preincubated for 2 hrs followed by fetal bovine serum addition measured 24 hrs post compound treatment by BrdU incorporation assay; type: cell-based
# [15] = molecular target: T1, N(G),N(G)-dimethylarginine dimethylaminohydrolase 1; test: Inhibition of recombinant human DDAH1 expressed in Escherichia coli BL21 Star (DE3) using SMTC as substrate assessed as decrease in L-citrulline and methanethiol production at 50 uM by CPM-based fluorimetric assay
# [16] = molecular target: T1, N(G),N(G)-dimethylarginine dimethylaminohydrolase 1; test: Inhibition of DDAH in lung fibroblasts isolated from late stage idiopathic pulmonary fibrosis patient assessed as reduction of TGF-beta-induced acid-soluble collagen levels at 100 uM after 24 hrs by sircol collagen assay
# [17] = molecular target: T1, N(G),N(G)-dimethylarginine dimethylaminohydrolase 1; test: Inhibition of recombinant human DDAH1 expressed in Escherichia coli BL21 Star (DE3) using ADMA as substrate assessed as decrease in citrulline production at 50 uM preincubated with protein followed by substrate addition by colorimetric method
# [18] = molecular target: T1, N(G),N(G)-dimethylarginine dimethylaminohydrolase 1; test: Inhibition of DDAH in fibroblasts isolated from idiopathic pulmonary fibrosis patient assessed as downregulation of TGFBR2 gene expression at 5 to 50 uM relative to vehicle-treated control
# [19] = molecular target: T1, N(G),N(G)-dimethylarginine dimethylaminohydrolase 1; test: Inhibition of DDAH in human A549 cells assessed as decrease in serum-stimulated cell proliferation at 20 uM preincubated for 2 hrs followed by fetal bovine serum addition measured 24 hrs post compound treatment by BrdU incorporation assay; type: cell-based
# [20] = molecular target: T1, N(G),N(G)-dimethylarginine dimethylaminohydrolase 1; test: Inhibition of DDAH in fibroblasts isolated from idiopathic pulmonary fibrosis patient assessed as downregulation of ITGB5 gene expression at 5 to 50 uM relative to vehicle-treated control
# [21] = molecular target: T1, N(G),N(G)-dimethylarginine dimethylaminohydrolase 1; test: Inhibition of DDAH in fibroblasts isolated from idiopathic pulmonary fibrosis patient assessed as downregulation of MMP8 gene expression at 5 to 50 uM relative to vehicle-treated control
# [22] = molecular target: T1, N(G),N(G)-dimethylarginine dimethylaminohydrolase 1; test: Inhibition of DDAH in HMEC1 assessed as increase in intracellular ADMA levels at 20 uM after 24 hrs by ELISA relative to vehicle-treated control; type: cell-based
# [23] = molecular target: T1, N(G),N(G)-dimethylarginine dimethylaminohydrolase 1; test: Inhibition of DDAH in fibroblasts isolated from idiopathic pulmonary fibrosis patient assessed as downregulation of TGFBR1 gene expression at 5 to 50 uM relative to vehicle-treated control
# [24] = molecular target: T1, N(G),N(G)-dimethylarginine dimethylaminohydrolase 1; test: Inhibition of DDAH in fibroblasts isolated from chronic obstructive pulmonary disease patient assessed as upregulation of HO1 gene expression at 5 to 50 uM after 24 hrs relative to vehicle-treated control
# [25] = molecular target: T1, N(G),N(G)-dimethylarginine dimethylaminohydrolase 1; test: Inhibition of DDAH in fibroblasts isolated from idiopathic pulmonary fibrosis patient assessed as downregulation of ITGB3 gene expression at 5 to 50 uM relative to vehicle-treated control
# [26] = molecular target: T1, N(G),N(G)-dimethylarginine dimethylaminohydrolase 1; test: Inhibition of DDAH in fibroblasts isolated from idiopathic pulmonary fibrosis patient assessed as downregulation of ITGA5 gene expression at 5 to 50 uM relative to vehicle-treated control
# [27] = molecular target: T1, N(G),N(G)-dimethylarginine dimethylaminohydrolase 1; test: Inhibition of DDAH in fibroblasts isolated from idiopathic pulmonary fibrosis patient assessed as downregulation of ITGB6 gene expression at 5 to 50 uM relative to vehicle-treated control
# [28] = molecular target: T1, N(G),N(G)-dimethylarginine dimethylaminohydrolase 1; test: Inhibition of DDAH in fibroblasts isolated from idiopathic pulmonary fibrosis patient assessed as downregulation of […] gene expression at 5 to 50 uM relative to vehicle-treated control
# [29] = molecular target: T1, N(G),N(G)-dimethylarginine dimethylaminohydrolase 1; test: Inhibition of DDAH in fibroblasts isolated from idiopathic pulmonary fibrosis patient assessed as downregulation of BMP2 gene expression at 5 to 50 uM relative to vehicle-treated control
# [30] = molecular target: T1, N(G),N(G)-dimethylarginine dimethylaminohydrolase 1; test: Inhibition of DDAH in fibroblasts isolated from idiopathic pulmonary fibrosis patient assessed as downregulation of BMPR2 gene expression at 5 to 50 uM relative to vehicle-treated control
# [31] = molecular target: T1, N(G),N(G)-dimethylarginine dimethylaminohydrolase 1; test: Inhibition of DDAH in fibroblasts isolated from idiopathic pulmonary fibrosis patient assessed as downregulation of SMAD6 gene expression at 5 to 50 uM relative to vehicle-treated control
# [32] = molecular target: T1, N(G),N(G)-dimethylarginine dimethylaminohydrolase 1; test: Inhibition of DDAH in fibroblasts isolated from idiopathic pulmonary fibrosis patient assessed as downregulation of ITGB1 gene expression at 5 to 50 uM relative to vehicle-treated control
# [33] = molecular target: T1, N(G),N(G)-dimethylarginine dimethylaminohydrolase 1; test: Inhibition of DDAH in fibroblasts isolated from idiopathic pulmonary fibrosis patient assessed as downregulation of ITGB8 gene expression at 5 to 50 uM relative to vehicle-treated control
# [34] = molecular target: T1, N(G),N(G)-dimethylarginine dimethylaminohydrolase 1; test: Inhibition of DDAH in bronchial epithelial cells isolated from chronic obstructive pulmonary disease patient assessed as downregulation of TRPV1 gene expression at 5 to 50 uM after 24 hrs relative to vehicle-treated control; type: cell-based; settings: Epithelial cell
# [35] = molecular target: T1, N(G),N(G)-dimethylarginine dimethylaminohydrolase 1; test: Inhibition of DDAH in fibroblasts isolated from early idiopathic pulmonary fibrosis patient assessed as upregulation of HO1 gene expression at 50 uM relative to control
# [36] = molecular target: T1, N(G),N(G)-dimethylarginine dimethylaminohydrolase 1; test: Inhibition of DDAH in fibroblasts isolated from idiopathic pulmonary fibrosis patient assessed as downregulation of BMPR1B gene expression at 5 to 50 uM relative to vehicle-treated control
# [37] = molecular target: T1, N(G),N(G)-dimethylarginine dimethylaminohydrolase 1; test: Inhibition of DDAH in bronchial epithelial cells isolated from chronic obstructive pulmonary disease patient assessed as upregulation of HO1 gene expression at 5 to 50 uM after 24 hrs relative to vehicle-treated control; type: cell-based; settings: Epithelial cell
# [38] = molecular target: T1, N(G),N(G)-dimethylarginine dimethylaminohydrolase 1; test: Inhibition of DDAH in fibroblasts isolated from idiopathic pulmonary fibrosis patient assessed as downregulation of TGFB1 gene expression at 5 to 50 uM relative to vehicle-treated control
# [39] = molecular target: T1, N(G),N(G)-dimethylarginine dimethylaminohydrolase 1; test: Inhibition of DDAH in fibroblasts isolated from late idiopathic pulmonary fibrosis patient assessed as upregulation of HO1 gene expression at 50 uM relative to control
# [40] = molecular target: T1, N(G),N(G)-dimethylarginine dimethylaminohydrolase 1; test: Inhibition of DDAH in bronchial epithelial cells isolated from chronic obstructive pulmonary disease patient assessed as downregulation of TNF-alpha gene expression at 5 to 50 uM after 24 hrs relative to vehicle-treated control; type: cell-based; settings: Epithelial cell
# [41] = molecular target: T1, N(G),N(G)-dimethylarginine dimethylaminohydrolase 1; test: Inhibition of DDAH in fibroblasts isolated from idiopathic pulmonary fibrosis patient assessed as downregulation of BMP4 gene expression at 5 to 50 uM relative to vehicle-treated control
# [42] = molecular target: T1, N(G),N(G)-dimethylarginine dimethylaminohydrolase 1; test: Inhibition of DDAH in lung fibroblasts isolated from late stage idiopathic pulmonary fibrosis patient assessed as reduction of TGF-beta-induced acid-soluble collagen levels at 20 uM after 24 hrs by sircol collagen assay
# [43] = molecular target: N(G),N(G)-dimethylarginine dimethylaminohydrolase 1 (Mus musculus) (UniProt Q9CWS0); test: Inhibition of DDAH in mouse MLE12 cells assessed as decrease in serum-stimulated cell proliferation at 50 to 100 uM preincubated for 2 hrs followed by fetal bovine serum addition measured 24 hrs post compound treatment by BrdU incorporation assay; type: cell-based
# [44] = molecular target: T1, N(G),N(G)-dimethylarginine dimethylaminohydrolase 1; settings: A549, 50 to 100 uM
# Description: Inhibition of DDAH in human A549 cells assessed as decrease in serum-stimulated cell proliferation at 50 to 100 uM preincubated for 2 hrs followed by fetal bovine serum addition measured 24 hrs post compound treatment by BrdU incorporation assay
# T1 sequence (O94760 whole entry): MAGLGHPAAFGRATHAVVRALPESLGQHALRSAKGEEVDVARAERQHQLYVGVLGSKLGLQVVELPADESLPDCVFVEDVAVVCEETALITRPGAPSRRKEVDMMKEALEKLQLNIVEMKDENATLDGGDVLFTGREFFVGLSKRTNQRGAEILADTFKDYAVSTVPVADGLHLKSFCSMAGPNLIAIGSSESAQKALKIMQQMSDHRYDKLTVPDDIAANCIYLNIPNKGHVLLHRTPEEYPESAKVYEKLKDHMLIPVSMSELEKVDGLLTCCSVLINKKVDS
# Sequence of N(G),N(G)-dimethylarginine dimethylaminohydrolase 1 (Mus musculus) (Q9CWS0 whole entry): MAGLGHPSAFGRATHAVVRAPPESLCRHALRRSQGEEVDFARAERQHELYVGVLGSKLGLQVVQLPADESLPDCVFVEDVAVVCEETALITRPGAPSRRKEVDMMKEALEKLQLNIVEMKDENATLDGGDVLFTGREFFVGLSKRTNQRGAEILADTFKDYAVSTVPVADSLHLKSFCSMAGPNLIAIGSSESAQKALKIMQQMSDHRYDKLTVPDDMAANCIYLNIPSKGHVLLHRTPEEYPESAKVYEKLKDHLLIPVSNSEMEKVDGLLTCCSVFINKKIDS
# Sequence of Transforming growth factor beta (Homo sapiens) (P01137 whole entry, looked up): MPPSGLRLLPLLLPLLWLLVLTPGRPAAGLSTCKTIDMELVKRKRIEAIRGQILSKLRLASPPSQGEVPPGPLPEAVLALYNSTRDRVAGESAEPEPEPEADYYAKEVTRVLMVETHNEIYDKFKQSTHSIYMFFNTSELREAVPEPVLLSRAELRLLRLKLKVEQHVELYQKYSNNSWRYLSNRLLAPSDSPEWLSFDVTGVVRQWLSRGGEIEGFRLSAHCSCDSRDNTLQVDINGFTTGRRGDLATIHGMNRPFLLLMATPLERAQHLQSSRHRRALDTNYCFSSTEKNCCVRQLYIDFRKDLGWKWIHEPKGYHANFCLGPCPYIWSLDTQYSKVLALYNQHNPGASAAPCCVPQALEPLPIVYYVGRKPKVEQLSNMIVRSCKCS
# Sequence of Transforming growth factor beta (Homo sapiens) (P10600 whole entry, looked up): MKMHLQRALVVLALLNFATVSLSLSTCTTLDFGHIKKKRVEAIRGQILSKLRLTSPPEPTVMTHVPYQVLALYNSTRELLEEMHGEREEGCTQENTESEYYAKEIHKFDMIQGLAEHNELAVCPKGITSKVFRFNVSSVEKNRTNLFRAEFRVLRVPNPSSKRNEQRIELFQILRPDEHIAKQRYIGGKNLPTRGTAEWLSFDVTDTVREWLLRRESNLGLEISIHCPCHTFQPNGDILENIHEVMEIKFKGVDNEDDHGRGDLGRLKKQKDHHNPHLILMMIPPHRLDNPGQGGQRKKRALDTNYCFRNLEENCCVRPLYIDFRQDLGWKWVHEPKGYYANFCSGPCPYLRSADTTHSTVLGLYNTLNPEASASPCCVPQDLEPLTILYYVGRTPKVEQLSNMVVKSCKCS
# Sequence of Transforming growth factor beta (Homo sapiens) (P61812 whole entry, looked up): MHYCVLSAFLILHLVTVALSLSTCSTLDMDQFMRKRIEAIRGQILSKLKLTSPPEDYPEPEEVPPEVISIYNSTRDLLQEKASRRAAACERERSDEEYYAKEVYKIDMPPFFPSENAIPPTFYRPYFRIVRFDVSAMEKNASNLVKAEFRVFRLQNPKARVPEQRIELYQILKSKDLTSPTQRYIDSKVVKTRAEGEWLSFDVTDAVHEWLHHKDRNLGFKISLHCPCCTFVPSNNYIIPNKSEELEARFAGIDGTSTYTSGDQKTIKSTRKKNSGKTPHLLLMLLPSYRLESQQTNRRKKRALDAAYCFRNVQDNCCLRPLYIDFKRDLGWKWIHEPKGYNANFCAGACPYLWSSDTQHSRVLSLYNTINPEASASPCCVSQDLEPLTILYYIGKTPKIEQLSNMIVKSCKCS
molecule,measurement,setting,value
PHENYLMERCURIC ACETATE,IC50,[1],< 0.78 µM
Cc1cccc(-c2nn(C(=S)Nc3ccccc3)cc2-c2ccnc3ccccc23)n1,inhibition,[2],Active
4-[sequence] ACID,inhibition,[1],Active
COc1ccc2[nH]c([S+]([O-])Cc3ncc(C)c(OC)c3C)nc2c1 (stereo not drawn) [OMEPRAZOLE],inhibition,[3],Active
same,inhibition,[4],Active
same,inhibition,[5],Active
same,inhibition,[6],Active
same,inhibition,[7],Active
same,inhibition,[8],Active
same,inhibition,[9],Active
same,IC50,[10],20 to 85 µM
same,inhibition,[10],Dose-dependent effect
same,Activity,[11],Non-Toxic
same,Activity,[12],Non-Toxic
same,inhibition,[13],Active
same,inhibition,[14],Active
same,inhibition,[15],Active
same,inhibition,[16],Active
same,inhibition,[17],Active
C/N=c1\nc(-c2ccccc2)n(-c2ccccc2)s1,IC50,[1],13.2 µM
COc1ccc2[nH]c([S@@+]([O-])Cc3ncc(C)c(OC)c3C)nc2c1,inhibition,[18],Active
same,inhibition,[5],Active
same,inhibition,[19],Active
same,inhibition,[20],Active
same,inhibition,[21],Active
same,inhibition,[22],37%
same,inhibition,[23],Active
same,fold change (FC),[24],10
same,inhibition,[25],Active
same,inhibition,[26],Active
same,inhibition,[27],Active
same,inhibition,[28],Active
same,inhibition,[29],Active
same,inhibition,[30],Active
same,inhibition,[31],Active
same,inhibition,[32],Active
same,inhibition,[33],Active
same,inhibition,[15],Active
same,inhibition,[34],Active
same,fold change (FC),[35],5
same,inhibition,[36],Active
same,fold change (FC),[37],4
same,inhibition,[38],Active
same,fold change (FC),[39],2.5
same,inhibition,[40],Active
same,inhibition,[41],Active
same,inhibition,[17],Active
CP(=O)(O)c1nc2ccccc2s1,IC50,[10],9.9 µM
CC1=CC(=O)C=C(C)C1=NS(=O)(=O)c1ccccc1,IC50,[1],9.03 µM
Cc1c(OCC(F)(F)F)ccnc1C[S+]([O-])c1nc2ccccc2[nH]1 (stereo not drawn),inhibition,[5],Active
same,inhibition,[19],Active
same,inhibition,[42],Active
same,inhibition,[10],Dose-dependent effect
same,inhibition,[15],Active
same,inhibition,[17],Active
CC1=CC(=O)C(Cl)=C(C)/C1=N/S(=O)(=O)c1ccc(C)cc1,IC50,[1],5.5 µM
COCCCOc1ccnc(C[S+]([O-])c2nc3ccccc3[nH]2)c1C (stereo not drawn),inhibition,[5],Active
same,inhibition,[19],Active
same,inhibition,[15],Active
same,inhibition,[17],Active
N=C1Sc2ccccc2C2=NCCCN12,inhibition,[5],Active
same,inhibition,[22],84%
same,inhibition,[15],Active
same,inhibition,[1],Dose-dependent effect
COc1ccc2[nH]c([S+]([O-])Cc3ncc(C)c(OC)c3C)nc2n1 (stereo not drawn),inhibition,[5],Active
same,inhibition,[10],Dose-dependent effect
same,inhibition,[17],Active
COCCNC(=N)NCCC[C@H](N)C(=O)O,inhibition,[6],Active
same,inhibition,[22],68%
same,inhibition,[43],Active
same,inhibition,[44],Active
COc1ccnc(C[S+]([O-])c2nc3cc(OC(F)F)ccc3[nH]2)c1OC (stereo not drawn) [PANTOPRAZOLE],IC50,[10],63 µM
O=c1c2ccccc2[se]n1-c1ccccc1,inhibition,[1],Active
